Reference: ChEMBL document CHEMBL3880442, “NHE3-binding compounds and methods for inhibiting phosphate transport” (2014)
Active and inactive are the calls of the source. No cut-off for these calls is given here.

Assays:
Rattus norvegicus [1] = test: Effect on sodium level in urine in Sprague-Dawley rat at 10 mg/kg administered via oral gavage measured after 16 hrs by gravimetric analysis relative to vehicle-treated control; type: functional
Rattus norvegicus [2] = test: Effect on phosphate level in urine in Sprague-Dawley rat at 10 mg/kg administered via oral gavage measured after 16 hrs by gravimetric analysis relative to vehicle-treated control; type: functional
Rattus norvegicus [3] = test: Effect on sodium level in urine in Sprague-Dawley rat at 1 mg/kg administered via oral gavage measured after 16 hrs by gravimetric analysis relative to vehicle-treated control; type: functional
Rattus norvegicus [4] = test: Inhibition of NHE3-mediated intestinal phosphate uptake in rat at 10 mg/kg, po administered with 33-labeled Pi; type: functional, organism-based
Rattus norvegicus [5] = test: Inhibition of NHE3-mediated intestinal phosphate uptake in rat at 10 mg/kg, po administered with 33-labeled Pi in presence of glucose and calcium; type: functional, organism-based
Rattus norvegicus [6] = test: Inhibition of NHE3-mediated intestinal phosphate uptake in rat at 10 mg/kg, po administered with 33-labeled Pi in presence of calcium; type: functional, organism-based
Rattus norvegicus [7] = test: Reduction in urinary sodium level in rat at 10 mg/kg, po administered with 33-labeled Pi; type: functional, organism-based
Rattus norvegicus [8] = test: Effect on fecal form in rat at 10 mg/kg, po administered with 33-labeled Pi; type: functional, organism-based
Rattus norvegicus [9] = test: Effect on sodium level in urine in Sprague-Dawley rat at 3 mg/kg administered via oral gavage measured after 16 hrs by gravimetric analysis relative to vehicle-treated control; type: functional
Rattus norvegicus [10] = test: Effect on phosphate level in urine in Sprague-Dawley rat at 3 mg/kg administered via oral gavage measured after 16 hrs by gravimetric analysis relative to vehicle-treated control; type: functional
Rattus norvegicus [11] = test: Effect on urinary excretion of phosphorus in dietary salt-induced Sprague-Dawley rat partial ablation model of chronic kidney disease at 0.3 to 3 mg/kg administered with chow diet measured after 7 days; type: functional, organism-based
Rattus norvegicus [12] = species on record: Rattus norvegicus; test: Reduction in plasma creatinine level in Sprague-Dawley rat model of uremia-associated vascular calcification measured after 27 days in presence of calcitriol; type: functional
Rattus norvegicus [13] = species on record: Rattus norvegicus; test: Reduction in plasma phosphorus level in Sprague-Dawley rat model of uremia-associated vascular calcification measured after 27 days in presence of calcitriol; type: functional
Rattus norvegicus [14] = species on record: Rattus norvegicus; test: Reduction in plasma FGF23 level in Sprague-Dawley rat model of uremia-associated vascular calcification measured after 27 days in presence of calcitriol; type: functional
Rattus norvegicus [15] = species on record: Rattus norvegicus; test: Reduction in creatinine clearance in Sprague-Dawley rat model of uremia-associated vascular calcification measured after 27 days in presence of calcitriol; type: functional
Rattus norvegicus [16] = species on record: Rattus norvegicus; test: Increase in plasma aldosterone level in Sprague-Dawley rat model of uremia-associated vascular calcification measured after 27 days in presence of calcitriol; type: functional
Rattus norvegicus [17] = species on record: Rattus norvegicus; test: Reduction in stomach calcium content in Sprague-Dawley rat model of uremia-associated vascular calcification measured after 27 days in presence of calcitriol; type: functional
Rattus norvegicus [18] = species on record: Rattus norvegicus; test: Reduction in stomach phosphorus content in Sprague-Dawley rat model of uremia-associated vascular calcification measured after 27 days in presence of calcitriol; type: functional
Rattus norvegicus [19] = species on record: Rattus norvegicus; test: Reduction in aortic calcium content in Sprague-Dawley rat model of uremia-associated vascular calcification measured after 27 days in presence of calcitriol; type: functional
Rattus norvegicus [20] = species on record: Rattus norvegicus; test: Reduction in aortic phosphorus content in Sprague-Dawley rat model of uremia-associated vascular calcification measured after 27 days in presence of calcitriol; type: functional
Rattus norvegicus [21] = test: Reduction in serum phosphorus level in adenine-induced uremic Sprague-Dawley rat model at 2 to 5 mg/kg administered with chow diet; type: functional, organism-based
Rattus norvegicus [22] = test: Reduction in serum creatinine level in adenine-induced uremic Sprague-Dawley rat model at 2 to 5 mg/kg administered with chow diet; type: functional, organism-based
Rattus norvegicus [23] = test: Anti-remodeling activity in adenine-induced uremic Sprague-Dawley rat model assessed as decrease in ratio of kidney weight to body weight at 2 to 5 mg/kg administered with chow diet; type: functional, organism-based
Rattus norvegicus [24] = test: Anti-remodeling activity in adenine-induced uremic Sprague-Dawley rat model assessed as decrease in ratio of heart weight to body weight at 2 to 5 mg/kg administered with chow diet; type: functional, organism-based
Rattus norvegicus [25] = test: Anti-remodeling activity in adenine-induced uremic Sprague-Dawley rat model assessed as decrease in ratio of stomach weight to body weight at 2 to 5 mg/kg administered with chow diet; type: functional, organism-based
Rattus norvegicus [26] = test: Anti-remodeling activity in adenine-induced uremic Sprague-Dawley rat model assessed as decrease in ratio of aortic arch weight to body weight at 2 to 5 mg/kg administered with chow diet; type: functional, organism-based
Rattus norvegicus [27] = test: Reduction in stomach calcium content in adenine-induced uremic Sprague-Dawley rat model at 5 mg/kg administered with chow diet; type: functional, organism-based
Rattus norvegicus [28] = test: Reduction in stomach phosphorus content in adenine-induced uremic Sprague-Dawley rat model at 5 mg/kg administered with chow diet; type: functional, organism-based
Rattus norvegicus [29] = test: Reduction in aortic calcium content in adenine-induced uremic Sprague-Dawley rat model at 5 mg/kg administered with chow diet; type: functional, organism-based
Rattus norvegicus [30] = test: Reduction in aortic phosphorus content in adenine-induced uremic Sprague-Dawley rat model at 5 mg/kg administered with chow diet; type: functional, organism-based
Rattus norvegicus [31] = test: Reduction in urinary phosphorus mass in rat at 0.3 to 3 mg/kg administered with diet relative to vehicle-control; type: functional, organism-based
Rattus norvegicus [32] = test: Reduction in urinary calcium mass in rat at 0.3 to 3 mg/kg administered with diet relative to vehicle-control; type: functional, organism-based
Rattus norvegicus [33] = test: Antihypertensive activity in dietary salt-induced Sprague-Dawley rat partial ablation model of chronic kidney disease assessed as reduction in blood pressure at 0.3 to 3 mg/kg administered with chow diet measured after 7 days; type: functional, organism-based
[34] = Reduction in fluid overload in dietary salt-induced Sprague-Dawley rat partial ablation model of chronic kidney disease at 0.3 to 3 mg/kg administered with chow diet measured after 7 days; type: functional, organism-based
Rattus norvegicus [35] = test: Reduction in albuminuria in dietary salt-induced Sprague-Dawley rat partial ablation model of chronic kidney disease at 0.3 to 3 mg/kg administered with chow diet measured after 7 days; type: functional, organism-based
Rattus norvegicus [36] = test: Antihypertrophic activity in dietary salt-induced Sprague-Dawley rat partial ablation model of chronic kidney disease assessed as change in heart morphology at 0.3 to 3 mg/kg administered with chow diet measured after 7 days; type: functional, organism-based
Rattus norvegicus [37] = test: Antihypertrophic activity in dietary salt-induced Sprague-Dawley rat partial ablation model of chronic kidney disease assessed as change in kidney morphology at 0.3 to 3 mg/kg administered with chow diet measured after 7 days; type: functional, organism-based
Rattus norvegicus [38] = species on record: Rattus norvegicus; test: Increase in plasma albumin level in Sprague-Dawley rat model of uremia-associated vascular calcification measured after 27 days in presence of calcitriol; type: functional
Rattus norvegicus [39] = species on record: Rattus norvegicus; test: Increase in plasma calcium level in Sprague-Dawley rat model of uremia-associated vascular calcification measured after 27 days in presence of calcitriol; type: functional
Rattus norvegicus [40] = species on record: Rattus norvegicus; test: Effect on heart hypertrophy in Sprague-Dawley rat model of uremia-associated vascular calcification assessed as reduction in heart to body weight ratio measured after 27 days in presence of calcitriol; type: functional
Rattus norvegicus [41] = species on record: Rattus norvegicus; test: Effect on kidney hypertrophy in Sprague-Dawley rat model of uremia-associated vascular calcification assessed as reduction in kidney to body weight ratio measured after 27 days in presence of calcitriol; type: functional

Compound: CN1Cc2c(Cl)cc(Cl)cc2[C@H](c2cccc(S(=O)(=O)NCCOCCOCCNC(=O)NCCN(CCNC(=O)NCCOCCOCCNS(=O)(=O)c3cccc([C@@H]4CN(C)Cc5c(Cl)cc(Cl)cc54)c3)C(=O)CCOCCOCCOCCOCCOCCC(=O)N(CCNC(=O)NCCOCCOCCNS(=O)(=O)c3cccc([C@@H]4CN(C)Cc5c(Cl)cc(Cl)cc54)c3)CCNC(=O)NCCOCCOCCNS(=O)(=O)c3cccc([C@@H]4CN(C)Cc5c(Cl)cc(Cl)cc54)c3)c2)C1
- Activity (Rattus norvegicus [1]): 47%
- Activity (Rattus norvegicus [2]): 69%

Compound: CN1Cc2c(Cl)cc(Cl)cc2[C@H](c2cccc(S(=O)(=O)NCCOCCOCCNC(=O)Nc3ccc(NC(=O)NCCOCCOCCNS(=O)(=O)c4cccc([C@@H]5CN(C)Cc6c(Cl)cc(Cl)cc65)c4)cc3)c2)C1.Cl.Cl
- Activity (Rattus norvegicus [3]): 22%
- inhibition (Rattus norvegicus [4]): Active
- inhibition (Rattus norvegicus [5]): Active
- inhibition (Rattus norvegicus [6]): Active
- Activity (Rattus norvegicus [7]): Active
- Activity (Rattus norvegicus [8]): Active

Compound: O=C(O)CN(CCN(CC(=O)O)CC(=O)NCCOCCOCCNS(=O)(=O)c1ccc(O[C@H]2c3ccccc3C[C@@H]2N2CCCCC2)cc1)CC(=O)NCCOCCOCCNS(=O)(=O)c1ccc(O[C@H]2c3ccccc3C[C@@H]2N2CCCCC2)cc1
- Activity (Rattus norvegicus [1]): 68 - 93%
- Activity (Rattus norvegicus [2]): 55 - 85%

Compound: CN1Cc2c(Cl)cc(Cl)cc2[C@H](c2cccc(S(=O)(=O)NCCOCCOCCNC(=O)CCC(CCC(=O)NCCOCCOCCNS(=O)(=O)c3cccc([C@@H]4CN(C)Cc5c(Cl)cc(Cl)cc54)c3)(CCC(=O)NCCOCCOCCNS(=O)(=O)c3cccc([C@@H]4CN(C)Cc5c(Cl)cc(Cl)cc54)c3)NC(=O)N[C@@H](CC(=O)O)C(=O)O)c2)C1
- Activity (Rattus norvegicus [9]): 41%
- Activity (Rattus norvegicus [10]): 51%

Compound: CN1Cc2c(Cl)cc(Cl)cc2[C@@H](c2cccc(S(=O)(=O)NCCOCCOCCNC(=O)NCCCC(N)(CCCNC(=O)NCCOCCOCCNS(=O)(=O)c3cccc([C@@H]4CN(C)Cc5c(Cl)cc(Cl)cc54)c3)CCCNC(=O)NCCOCCOCCNS(=O)(=O)c3cccc([C@@H]4CN(C)Cc5c(Cl)cc(Cl)cc54)c3)c2)C1
- Activity (Rattus norvegicus [9]): 56%
- Activity (Rattus norvegicus [10]): 50%

Compound: O=C(NCCCCNC(=O)NCCOCCOCCNS(=O)(=O)c1ccc(O[C@H]2c3ccccc3C[C@@H]2N2CCCCC2)cc1)NCCOCCOCCNS(=O)(=O)c1ccc(O[C@H]2c3ccccc3C[C@@H]2N2CCCCC2)cc1
- Activity (Rattus norvegicus [1]): 35 - 73%
- Activity (Rattus norvegicus [2]): 30 - 51%

Compound: CN(CC(=O)NCCOCCOCCOCCN1CCN(c2ccc(-c3nc(NC(=N)N)nc4ccc(Cl)cc34)cc2)CC1)CC(=O)NCCOCCOCCOCCN1CCN(c2ccc(-c3nc(NC(=N)N)nc4ccc(Cl)cc34)cc2)CC1
- Activity (Rattus norvegicus [1]): 66%
- Activity (Rattus norvegicus [2]): 101%

Compound: CN1Cc2c(Cl)cc(Cl)cc2[C@H](c2cccc(S(=O)(=O)NCCOCCOCCNC(=O)CCC(CCC(=O)NCCOCCOCCNS(=O)(=O)c3cccc([C@@H]4CN(C)Cc5c(Cl)cc(Cl)cc54)c3)(CCC(=O)NCCOCCOCCNS(=O)(=O)c3cccc([C@@H]4CN(C)Cc5c(Cl)cc(Cl)cc54)c3)NC(=O)N3CCN(CCOCCO)CC3)c2)C1
- Activity (Rattus norvegicus [9]): 31%
- Activity (Rattus norvegicus [10]): 34%

Compound: CN1Cc2c(Cl)cc(Cl)cc2[C@H](c2cccc(S(=O)(=O)NCCOCCOCCNC(=O)NCCCCNC(=O)NCCOCCOCCNS(=O)(=O)c3cccc([C@@H]4CN(C)Cc5c(Cl)cc(Cl)cc54)c3)c2)C1
- Activity (Rattus norvegicus [11]): Active
- Activity (Rattus norvegicus [12]): Active
- Activity (Rattus norvegicus [13]): Active
- Activity (Rattus norvegicus [14]): Active
- Activity (Rattus norvegicus [15]): Active
- Activity (Rattus norvegicus [16]): Active
- Activity (Rattus norvegicus [17]): Active
- Activity (Rattus norvegicus [18]): Active
- Activity (Rattus norvegicus [19]): Active
- Activity (Rattus norvegicus [20]): Active
- Activity (Rattus norvegicus [21]): Active
- Activity (Rattus norvegicus [22]): Active
- Activity (Rattus norvegicus [23]): Active
- Activity (Rattus norvegicus [24]): Active
- Activity (Rattus norvegicus [25]): Active
- Activity (Rattus norvegicus [26]): Active
- Activity (Rattus norvegicus [27]): Active
- Activity (Rattus norvegicus [28]): Active
- Activity (Rattus norvegicus [29]): Active
- Activity (Rattus norvegicus [30]): Active
- Activity (Rattus norvegicus [31]): Active
- Activity (Rattus norvegicus [32]): Active
- Activity (Rattus norvegicus [33]): Active
- Activity [34]: Active
- Activity (Rattus norvegicus [35]): Active
- Activity (Rattus norvegicus [36]): Active
- Activity (Rattus norvegicus [37]): Active
- Activity (Rattus norvegicus [38]): Active
- Activity (Rattus norvegicus [39]): Active
- Activity (Rattus norvegicus [40]): Active
- Activity (Rattus norvegicus [41]): Active
